Experimental findings from PubChem BioAssay (NCI) are described below.

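Where inhibition never reached the appropriate level, the endpoint shown equals the highest concentration tested. Otherwise, values were interpolated linearly from a five-concentration, 48-hour dose response in 96-well plates. GI50 marks 50% less growth. At the TGI there is no net growth.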 Some results are limits rather than exact numbers.

Test systems include SF-539 CNS; IGROV1 ovarian; DU-145 prostate; UACC-257 melanoma; NCI-H522 lung; SK-OV-3 ovarian; SN12C renal; EKVX NSCLC.
Holding throughout (experiment): inhibition of tumour cell growth, NCI panel, 48 h

For the compound `COC(OC)[C@@H]1OC[C@@H](O)[C@@H]1n1cnc2c(N)ncnc21`, the TGI with SF-539 CNS, with IGROV1 ovarian, in the assay on DU-145 prostate, in the assay on UACC-257 melanoma, in the assay with NCI-H522 lung and with SK-OV-3 ovarian was > 100 µM in each case. The TGI in the assay on SN12C renal and with EKVX NSCLC was > 100 µM in each case.

Regarding `Cc1ccc(NC(=O)C(=O)CC(=O)c2sc(Nc3c(C)cccc3C)nc2C)cc1C`, the TGI with SF-539 CNS, in the assay on IGROV1 ovarian, with DU-145 prostate, in the assay with UACC-257 melanoma, with NCI-H522 lung and in the assay on SK-OV-3 ovarian was > 100 µM in each case. Also, the TGI in the assay on SN12C renal and with EKVX NSCLC was > 100 µM in each case.

For the compound `C[Si](C)(C)C1=C([Si](C)(C)C)C(Cl)(Cl)C1=O`, the TGI with SF-539 CNS worked out at 12.7 µM; in the assay on IGROV1 ovarian, 16.1 µM; with DU-145 prostate it was 23.3 µM; in the assay with UACC-257 melanoma, 6.95 µM; in the assay on NCI-H522 lung, 3.6 µM; in the assay on SK-OV-3 ovarian, 49.3 µM. For the same compound, the TGI in the assay on SN12C renal was determined as 15.8 µM; in the assay with EKVX NSCLC it was 16.2 µM.

Turning to `C[C@H](C/C=C/C(C)(C)O)[C@H]1CC[C@@]2(C)[C@@H]3CC[C@H]4C(C)(C)[C@@H](O)CC[C@@]45C[C@@]35CC[C@]12C`, the TGI in the assay with SF-539 CNS was 30.8 µM; in the assay on IGROV1 ovarian, 48.9 µM; in the assay on DU-145 prostate, 28.8 µM; in the assay on UACC-257 melanoma it was 33.2 µM; with NCI-H522 lung, 15.4 µM; in the assay with SK-OV-3 ovarian, > 100 µM. Moreover, the TGI in the assay with SN12C renal came out at 27.9 µM; in the assay with EKVX NSCLC, 34.7 µM.

`CC(=O)N1CCn2c1nc1cc(Cl)ccc12`: the TGI in the assay with SF-539 CNS is > 100 µM; in the assay with IGROV1 ovarian, > 100 µM; with DU-145 prostate it was > 100 µM; in the assay with UACC-257 melanoma, > 100 µM; in the assay on NCI-H522 lung, > 100 µM; in the assay on SK-OV-3 ovarian, 68 µM. Moreover, the TGI with SN12C renal and in the assay with EKVX NSCLC was > 100 µM throughout.

Consider `COc1ccc2c(OCc3nnc4ccc(-c5ccccc5)nn34)ccnc2c1`, for which the GI50 is > 100 µM in the assay with SF-539 CNS; > 100 µM in the assay with IGROV1 ovarian; > 100 µM in the assay with DU-145 prostate; > 100 µM in the assay on UACC-257 melanoma; 20.1 µM in the assay on NCI-H522 lung; > 100 µM in the assay on SK-OV-3 ovarian. The GI50 in the assay with SN12C renal and in the assay with EKVX NSCLC was > 100 µM throughout. The TGI in the assay on SF-539 CNS is > 100 µM; in the assay on IGROV1 ovarian, > 100 µM; in the assay with DU-145 prostate, > 100 µM; in the assay with UACC-257 melanoma, > 100 µM; in the assay on NCI-H522 lung, > 43.8 µM; with SK-OV-3 ovarian it was > 100 µM. The TGI with SN12C renal and in the assay on EKVX NSCLC was > 100 µM in each case.

Regarding `CC(C)C1N(C)c2ccc(Cl)cc2[C@H]2c3ccccc3CCN12` (stereo partly drawn), the TGI was > 100 µM in the assay with SF-539 CNS; > 100 µM with IGROV1 ovarian; > 100 µM in the assay on DU-145 prostate; 90.3 µM in the assay on UACC-257 melanoma; 88.2 µM in the assay with NCI-H522 lung; > 100 µM in the assay with SK-OV-3 ovarian. Besides, the TGI with SN12C renal and in the assay with EKVX NSCLC was > 100 µM throughout.

As for `NNC(=O)c1cc(=O)[nH][nH]1`, the TGI with SF-539 CNS, in the assay with IGROV1 ovarian, in the assay with DU-145 prostate, with UACC-257 melanoma, in the assay with NCI-H522 lung and in the assay on SK-OV-3 ovarian was > 100 µM throughout. The TGI in the assay on SN12C renal and in the assay with EKVX NSCLC was > 100 µM throughout.

As to `S=C(Nc1ccc2cn[nH]c2c1)Nc1ccc2cn[nH]c2c1`, the TGI in the assay with SF-539 CNS, in the assay with IGROV1 ovarian, with DU-145 prostate, in the assay with UACC-257 melanoma, in the assay with NCI-H522 lung and with SK-OV-3 ovarian was > 100 µM in each case. For the same compound, the TGI in the assay with SN12C renal and in the assay with EKVX NSCLC was > 100 µM each time.

Turning to `CC1=NC(=Cc2ccc([N+](=O)[O-])cc2)C(=O)N1n1c(-c2ccccc2)nc2ccccc2c1=O`, the TGI in the assay on SF-539 CNS was > 100 µM; in the assay on IGROV1 ovarian, > 100 µM; in the assay on DU-145 prostate, > 100 µM; in the assay with UACC-257 melanoma it was > 100 µM; in the assay on NCI-H522 lung it was 74.5 µM; with SK-OV-3 ovarian, > 100 µM. The TGI in the assay with SN12C renal and in the assay on EKVX NSCLC was > 100 µM throughout.

Turning to `COC(=O)c1ccc(Nc2nc3nc[nH]c3c(=O)[nH]2)cc1`, the TGI in the assay with SF-539 CNS, with IGROV1 ovarian, in the assay with DU-145 prostate, with UACC-257 melanoma, with NCI-H522 lung and in the assay on SK-OV-3 ovarian was > 100 µM in each case. The TGI in the assay on SN12C renal and in the assay with EKVX NSCLC was > 100 µM in each case.

`CCOc1cc(NC(C)=O)ccc1C(=O)NN1C(=O)CSC1c1ccccc1` (stereo not drawn): the TGI with SF-539 CNS, in the assay on IGROV1 ovarian, with DU-145 prostate, with UACC-257 melanoma, in the assay with NCI-H522 lung and with SK-OV-3 ovarian was > 100 µM throughout. For the same compound, the TGI in the assay on SN12C renal and with EKVX NSCLC was > 100 µM each time.

`CC(=N\N)/C(C)=N/N=C(C)/C(C)=N/N=C(C)/C(C)=N/N`: the TGI in the assay on SF-539 CNS, in the assay with IGROV1 ovarian, with DU-145 prostate, in the assay with UACC-257 melanoma, in the assay with NCI-H522 lung and with SK-OV-3 ovarian was > 100 µM throughout. Further, the TGI in the assay on SN12C renal and in the assay with EKVX NSCLC was > 100 µM in each case.

Regarding `C=CCOCn1cc(C)c(=O)[nH]c1=O`, the TGI in the assay with SF-539 CNS is > 100 µM; in the assay with IGROV1 ovarian, > 100 µM; in the assay with DU-145 prostate, > 100 µM; in the assay on UACC-257 melanoma, > 100 µM; in the assay on NCI-H522 lung, 50.2 µM; in the assay with SK-OV-3 ovarian, > 100 µM. Besides, the TGI in the assay with SN12C renal and in the assay on EKVX NSCLC was > 100 µM throughout.

On to `O=[N+]([O-])c1ccc(O)c(/C=N/NC(=S)N2CCCCC2)c1`, for which the TGI was > 100 µM in the assay with SF-539 CNS; 8.76 µM with IGROV1 ovarian; > 52.5 µM with DU-145 prostate; 14.1 µM with UACC-257 melanoma; > 45.3 µM with NCI-H522 lung; > 56.6 µM with SK-OV-3 ovarian. The results for the TGI with SN12C renal and with EKVX NSCLC were > 41.9 µM and 15.3 µM, respectively.
